# Measurements published in patent publication US20230218765A1, “SMALL MOLECULE DEGRADERS OF SHP2 PROTEIN” (THE REGENTS OF THE UNIVERSITY OF MICHIGAN, priority 2020, published 2023).
# Where a SMILES comes first, the peptide text is derived from it. The star is where a group is joined. Cbz = O=C(OCc1ccccc1)*
# Tests used:
# SHP2 [1] = target: T1, SHP2 (Homo sapiens, UniProt Q06124); test: SHP2 degradation by Western blot in MV4;11 cells; settings: 0.1 µM
# T1 sequence (Q06124 1-593): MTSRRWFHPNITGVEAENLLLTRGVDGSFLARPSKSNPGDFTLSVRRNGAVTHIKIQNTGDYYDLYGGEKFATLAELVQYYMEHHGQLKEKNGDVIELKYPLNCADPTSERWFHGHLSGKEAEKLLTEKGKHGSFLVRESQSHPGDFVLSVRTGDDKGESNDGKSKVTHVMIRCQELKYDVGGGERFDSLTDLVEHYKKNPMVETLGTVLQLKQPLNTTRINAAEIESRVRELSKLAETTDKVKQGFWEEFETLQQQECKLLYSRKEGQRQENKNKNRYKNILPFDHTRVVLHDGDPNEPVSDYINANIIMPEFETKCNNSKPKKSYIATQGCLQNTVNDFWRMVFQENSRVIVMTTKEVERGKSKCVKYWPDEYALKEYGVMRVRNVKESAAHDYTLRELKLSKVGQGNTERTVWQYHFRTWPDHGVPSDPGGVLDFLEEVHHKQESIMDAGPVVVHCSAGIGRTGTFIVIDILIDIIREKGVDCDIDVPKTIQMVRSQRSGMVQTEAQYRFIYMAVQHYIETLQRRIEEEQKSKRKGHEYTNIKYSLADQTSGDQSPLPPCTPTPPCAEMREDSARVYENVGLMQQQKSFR
# Experimental: (§1) Western blotting and quantification were performed with regular western blot method and band quantification was performed using ImageJ. Treated cells were lysed by RIPA buffer supplemented with protease and phosphatase inhibitors. […] The net protein bands and loading controls are calculated by deducting the background from the inverted band value. The final relative quantification values are the ratio of the net band to net loading control.
# (§2) The treated cells were harvested and the level of SHP2 protein was examined by blot analysis. GAPDH was used as a loading control.
# (§3) SHP2 protein was examined by Western blotting and the protein level was quantified by densitometry and normalized to the corresponding density of the GAPDH protein. […] Cells were treated with 100 nM of SHP2-D26 for different times. SHP2 protein was examined by Western blotting and the GAPDH protein was used as the loading control.
# SHP2 [2] = target: T1, SHP2; test: SHP2 degradation by Western blot in KYSE520 cells; settings: for block of SHP2-D26-induced degradation of SHP2 protein: KYSE520, pre-treatment 1 h (VHL 10 µM, compound 4 10 µM, MLN4924 0.5 µM, MG132 3 µm), then SHP2-D26 0.1 µM
# Experimental: as §1, §2, §3
% of SHP2 protein degradation in MV4;11 cell line (SHP2 [1]) [%],% of SHP2 protein degradation in KYSE520 cell line (SHP2 [2]; 0.1 µM) [%],% of SHP2 protein degradation in KYSE520 cell line (SHP2 [2]; 1 µM) [%],SMILES,block of SHP2-D26-induced degradation of SHP2 protein (SHP2 [2])
6,80,>95,Cc1ncsc1-c1ccc([C@@H](C)NC(=O)[C@H]2C[C@H](O)CN2C(=O)[C@H](NC(=O)CCCCCCCCCCCN2CCN(CC(=O)Nc3cccc(Sc4ncc(N5CCC(C)(N)CC5)nc4N)c3Cl)CC2)C(C)(C)C)cc1 [Compound 24],–
8,62,90,Cc1ncsc1-c1ccc([C@@H](C)NC(=O)[C@H]2C[C@H](O)CN2C(=O)[C@H](NC(=O)CCCCCCCCCCCCCCC(=O)Nc2cccc(Sc3ncc(N4CCC(C)(N)CC4)nc3N)c2Cl)C(C)(C)C)cc1 [Compound 25],–
95,53,>95,Cc1ncsc1-c1ccc([C@@H](C)NC(=O)[C@H]2C[C@H](O)CN2C(=O)[C@H](NC(=O)COCCOCCOCCOCCNC(=O)CCC(=O)Nc2cccc(Sc3ncc(N4CCC(C)(N)CC4)nc3N)c2Cl)C(C)(C)C)cc1 [Compound 22],–
>95,>95,>95,Cc1ncsc1-c1ccc([C@@H](C)NC(=O)[C@H]2C[C@H](O)CN2C(=O)[C@H](NC(=O)CCCCCCCCCN2CCN(C(=O)CCC(=O)Nc3cccc(Sc4ncc(N5CCC(C)(N)CC5)nc4N)c3Cl)CC2)C(C)(C)C)cc1 [Compound 27],–
85,32,87,Cc1ncsc1-c1ccc([C@@H](C)NC(=O)[C@H]2C[C@H](O)CN2C(=O)[C@H](NC(=O)CCOCCOCCOCCNC(=O)CCC(=O)Nc2cccc(Sc3ncc(N4CCC(C)(N)CC4)nc3N)c2Cl)C(C)(C)C)cc1 [Compound 21],–
>95,>95,>95,Cc1ncsc1-c1ccc([C@@H](C)NC(=O)[C@H]2C[C@H](O)CN2C(=O)[C@H](NC(=O)CCCCCCCCCCCNC(=O)CC(=O)Nc2cccc(Sc3ncc(N4CCC(C)(CN)CC4)nc3N)c2Cl)C(C)(C)C)cc1 [Compound 40],–
94,>95,>95,Cc1ncsc1-c1ccc([C@H](C)NC(=O)[C@@H]2C[C@@H](O)CN2C(=O)[C@@H](NC(=O)CCOCCOCCOCCNC(=O)CC(=O)Nc2cccc(Sc3ncc(N4CCC5(CCC[C@@H]5N)CC4)nc3N)c2Cl)C(C)(C)C)cc1 [Compound 42],–

# Further lines, the compound ahead of its results:
SMILES,% of SHP2 protein degradation in MV4;11 cell line (SHP2 [1]) [%],% of SHP2 protein degradation in KYSE520 cell line (SHP2 [2]; 0.1 µM) [%],% of SHP2 protein degradation in KYSE520 cell line (SHP2 [2]; 1 µM) [%],block of SHP2-D26-induced degradation of SHP2 protein (SHP2 [2])
Cc1ncsc1-c1ccc([C@@H](C)NC(=O)[C@H]2C[C@H](O)CN2C(=O)[C@H](NC(=O)CCCCCCCCCCCNC(=O)CC(=O)Nc2cccc(Sc3ncc(N4CCC(C)(N)CC4)nc3N)c2Cl)C(C)(C)C)cc1 [Compound 16],–,>95,93,–
Cc1ncsc1-c1ccc([C@@H](C)NC(=O)[C@H]2C[C@H](O)CN2C(=O)[C@H](NC(=O)CCCCCCCCNC(=O)CC(=O)Nc2cccc(Sc3ncc(N4CCC(C)(N)CC4)nc3N)c2Cl)C(C)(C)C)cc1 [Compound 13],–,81,80,–
Cc1ncsc1-c1ccc([C@@H](C)NC(=O)[C@H]2C[C@H](O)CN2C(=O)[C@H](NC(=O)CCCCCCNC(=O)CC(=O)Nc2cccc(Sc3ncc(N4CCC(C)(N)CC4)nc3N)c2Cl)C(C)(C)C)cc1 [Compound 11],–,0,0,–
Cc1ncsc1-c1ccc([C@@H](C)NC(=O)[C@H]2C[C@H](O)CN2C(=O)[C@H](NC(=O)CCCCCCCCCCCNC(=O)CCCC(=O)Nc2cccc(Sc3ncc(N4CCC(C)(N)CC4)nc3N)c2Cl)C(C)(C)C)cc1 [Compound 19],–,>95,>95,–
Cc1ncsc1-c1ccc([C@@H](C)NC(=O)[C@H]2C[C@H](O)CN2C(=O)[C@H](NC(=O)CCCCCCCCCNC(=O)CC(=O)Nc2cccc(Sc3ncc(N4CCC(C)(N)CC4)nc3N)c2Cl)C(C)(C)C)cc1 [Compound 14],–,>95,92,–
Cc1ncsc1-c1ccc([C@@H](C)NC(=O)[C@H]2C[C@H](O)CN2C(=O)[C@H](NC(=O)CCCCCCCCCCNC(=O)CC(=O)Nc2cccc(Sc3ncc(N4CCC(C)(N)CC4)nc3N)c2Cl)C(C)(C)C)cc1 [Compound 15],–,>95,>95,–
Cc1ncsc1-c1ccc([C@@H](C)NC(=O)[C@H]2C[C@H](O)CN2C(=O)[C@H](NC(=O)CCCNC(=O)CC(=O)Nc2cccc(Sc3ncc(N4CCC(C)(N)CC4)nc3N)c2Cl)C(C)(C)C)cc1 [Compound 8],–,9,7,–
Cc1ncsc1-c1ccc([C@@H](C)NC(=O)[C@H]2C[C@H](O)CN2C(=O)[C@H](NC(=O)CCCCCCCCCCCNC(=O)CCC(=O)Nc2cccc(Sc3ncc(N4CCC(C)(N)CC4)nc3N)c2Cl)C(C)(C)C)cc1 [Compound 18],–,>95,>95,–
Cc1ncsc1-c1ccc([C@@H](C)NC(=O)[C@H]2C[C@H](O)CN2C(=O)[C@H](NC(=O)COCCOCCOCCNC(=O)CCC(=O)Nc2cccc(Sc3ncc(N4CCC(C)(N)CC4)nc3N)c2Cl)C(C)(C)C)cc1 [Compound 20],>95,80,>95,–
Cc1ncsc1-c1ccc([C@@H](C)NC(=O)[C@H]2C[C@H](O)CN2C(=O)[C@H](NC(=O)CCCCCNC(=O)CC(=O)Nc2cccc(Sc3ncc(N4CCC(C)(N)CC4)nc3N)c2Cl)C(C)(C)C)cc1 [Compound 10],–,0,3,–
Cc1ncsc1-c1ccc([C@@H](C)NC(=O)[C@H]2C[C@H](O)CN2C(=O)[C@H](NC(=O)CCCCCCCCCCNC(=O)CCC(=O)Nc2cccc(Sc3ncc(N4CCC(C)(N)CC4)nc3N)c2Cl)C(C)(C)C)cc1 [Compound 17],–,>95,>95,–
"CC(C)C[C@@H](C=O)NC(=O)[C@H](CC(C)C)NC(=O)[C@H](CC(C)C)NC(=O)OCc1ccccc1 [MG132, reference compound] (Cbz-Leu-Leu-Leu-aldehyde)",–,–,–,effectively block degradation of SHP2 protein
Cc1ncsc1-c1ccc([C@@H](C)NC(=O)[C@H]2C[C@H](O)CN2C(=O)[C@H](NC(=O)CCCCCCCNC(=O)CC(=O)Nc2cccc(Sc3ncc(N4CCC(C)(N)CC4)nc3N)c2Cl)C(C)(C)C)cc1 [Compound 12],–,20,14,–
Cc1ncsc1-c1ccc([C@@H](C)NC(=O)[C@H]2C[C@H](O)CN2C(=O)[C@H](NC(=O)CCCCNC(=O)CC(=O)Nc2cccc(Sc3ncc(N4CCC(C)(N)CC4)nc3N)c2Cl)C(C)(C)C)cc1 [Compound 9],–,13,6,–
"NS(=O)(=O)OC[C@@H]1C[C@@H](n2ccc3c(N[C@H]4CCc5ccccc54)ncnc32)C[C@@H]1O [MLN4924, reference compound]",–,–,–,effectively block degradation of SHP2 protein
